According to article PMC11381307 (Frontiers in Pharmacology, 2024):

How the values were obtained:
[1] = biological target: T1, OATP1B1 (Homo sapiens, UniProt Q9Y6L6); assay: Inhibitory effect of seven drugs on OATP1B1-mediated E217βG uptake; assay type: cell-based; details: 50 μM or 50 μg/mL; N = 2
T1 construct: host or cells: HEK293
T1 sequence (Q9Y6L6 1-691): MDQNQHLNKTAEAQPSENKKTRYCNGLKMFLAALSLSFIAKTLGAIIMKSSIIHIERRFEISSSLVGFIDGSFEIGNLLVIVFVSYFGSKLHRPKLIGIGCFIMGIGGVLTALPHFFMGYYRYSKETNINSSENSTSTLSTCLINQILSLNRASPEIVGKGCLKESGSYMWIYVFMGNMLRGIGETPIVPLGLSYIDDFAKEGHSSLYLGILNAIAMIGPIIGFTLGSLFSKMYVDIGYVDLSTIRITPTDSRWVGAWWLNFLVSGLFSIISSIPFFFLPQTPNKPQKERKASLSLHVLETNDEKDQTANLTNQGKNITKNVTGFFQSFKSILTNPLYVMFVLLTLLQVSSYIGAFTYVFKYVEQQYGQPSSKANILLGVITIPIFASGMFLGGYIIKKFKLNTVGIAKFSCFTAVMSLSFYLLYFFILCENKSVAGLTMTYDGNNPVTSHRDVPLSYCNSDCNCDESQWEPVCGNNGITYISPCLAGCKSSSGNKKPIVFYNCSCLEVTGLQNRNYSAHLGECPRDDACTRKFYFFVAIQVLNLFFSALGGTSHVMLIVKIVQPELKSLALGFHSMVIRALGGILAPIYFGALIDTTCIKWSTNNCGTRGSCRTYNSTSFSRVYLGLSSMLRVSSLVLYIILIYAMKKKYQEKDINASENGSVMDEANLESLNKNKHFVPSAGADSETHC
Experimental: (§1) Note: the peak area of probe substrate transported by MRP2, OAT3, OATP1B1 or OATP1B3 was determined by LC-MS method. Then, the relative uptake rate of probe substrate in the presence of seven drugs was calculated by using equation 7 or 11. When the relative uptake rate was decreased by more than 50%, indicating the potential inhibitory of drug on the transporter.

[2] = biological target: T2, OATP1B3 (Homo sapiens, UniProt Q9NPD5); assay: Inhibitory effect of seven drugs on OATP1B3-mediated E217βG uptake; assay type: cell-based; details: 50 μM or 50 μg/mL; N = 2
T2 construct: host or cells: HEK293
T2 sequence (Q9NPD5 1-702): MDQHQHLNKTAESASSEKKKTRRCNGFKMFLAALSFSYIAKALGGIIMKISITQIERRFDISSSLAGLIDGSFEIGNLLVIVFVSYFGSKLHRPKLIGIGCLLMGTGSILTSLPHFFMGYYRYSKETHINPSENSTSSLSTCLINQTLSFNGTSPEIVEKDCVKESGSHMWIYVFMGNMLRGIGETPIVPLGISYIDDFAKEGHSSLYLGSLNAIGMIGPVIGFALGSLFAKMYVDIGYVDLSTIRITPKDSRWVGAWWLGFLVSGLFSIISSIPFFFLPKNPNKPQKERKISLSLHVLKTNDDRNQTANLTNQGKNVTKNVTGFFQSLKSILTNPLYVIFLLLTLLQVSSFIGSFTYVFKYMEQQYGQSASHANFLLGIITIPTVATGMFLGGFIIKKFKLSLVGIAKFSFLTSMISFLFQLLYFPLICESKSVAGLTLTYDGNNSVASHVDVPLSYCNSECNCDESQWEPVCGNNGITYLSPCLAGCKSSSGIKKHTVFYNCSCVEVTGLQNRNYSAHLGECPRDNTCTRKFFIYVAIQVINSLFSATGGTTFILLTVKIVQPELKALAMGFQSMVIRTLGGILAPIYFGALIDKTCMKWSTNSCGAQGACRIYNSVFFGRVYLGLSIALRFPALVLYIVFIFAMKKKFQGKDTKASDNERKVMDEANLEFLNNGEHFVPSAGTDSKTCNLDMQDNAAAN
Experimental: as §1

[3] = biological target: T3, OAT3 (Homo sapiens, UniProt Q8TCC7); assay: Inhibitory effect of seven drugs on OAT3-mediated ES uptake; assay type: cell-based; set-up: host or cells: HEK293; details: 50 μM or 50 μg/mL; N = 2
T3 sequence (Q8TCC7 1-542): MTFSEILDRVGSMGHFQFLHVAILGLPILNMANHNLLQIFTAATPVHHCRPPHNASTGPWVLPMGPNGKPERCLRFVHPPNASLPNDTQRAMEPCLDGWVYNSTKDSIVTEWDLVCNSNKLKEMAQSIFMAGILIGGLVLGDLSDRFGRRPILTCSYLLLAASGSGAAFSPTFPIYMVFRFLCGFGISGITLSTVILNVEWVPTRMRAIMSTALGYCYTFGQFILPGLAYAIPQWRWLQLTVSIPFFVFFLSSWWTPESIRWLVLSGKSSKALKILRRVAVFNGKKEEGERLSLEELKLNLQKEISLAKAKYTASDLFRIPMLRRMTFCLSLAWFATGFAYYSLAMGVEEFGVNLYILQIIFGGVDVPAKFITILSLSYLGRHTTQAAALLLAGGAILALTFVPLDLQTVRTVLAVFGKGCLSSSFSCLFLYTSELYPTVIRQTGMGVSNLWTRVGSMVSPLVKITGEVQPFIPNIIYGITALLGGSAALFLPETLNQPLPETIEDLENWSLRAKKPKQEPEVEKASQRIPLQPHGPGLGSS
Experimental: as §1

[4] = biological target: MRP2 (Homo sapiens, UniProt Q92887); assay: Inhibitory effect of seven drugs on MRP2-mediated E217βG uptake (vesicles); assay type: biochemical; set-up: purchased GenoMembrane (Tokyo, Japan) Product No. 0001; details: 50 μM or 50 μg/mL; N = 2
Experimental: Briefly, 10 μL of vesicle membranes and 5 μL of Reagent G were mixed and pre-incubated with 10 μL of the compounds or Buffer A2 (used as no compound-treatment control [NC]) at 37°C for 5 min. […] The two mixtures were mixed before the incubation and then incubated for an additional 5 min. […]
Regarding the inhibition assay, the methods used to calculate the transported activity and UR were similar to those used for the substrate assay. However, please refer to the SLC inhibition assay for the equations for calculating the UR percentages relative to the NC and IC50 values of compounds on MRP2 activity and MRP2-mediated MPAG transport.
as §1

[5] = biological target: T3, OAT3; assay: Transporter substrate study using HEK293-OAT3 cells; details: for uptake ratio (UR) mediated by OAT3: 10 μM
[6] = cited from earlier work
[7] = biological target: T4, human OAT1 (Homo sapiens, UniProt Q4U2R8)
T4 sequence (Q4U2R8 1-563): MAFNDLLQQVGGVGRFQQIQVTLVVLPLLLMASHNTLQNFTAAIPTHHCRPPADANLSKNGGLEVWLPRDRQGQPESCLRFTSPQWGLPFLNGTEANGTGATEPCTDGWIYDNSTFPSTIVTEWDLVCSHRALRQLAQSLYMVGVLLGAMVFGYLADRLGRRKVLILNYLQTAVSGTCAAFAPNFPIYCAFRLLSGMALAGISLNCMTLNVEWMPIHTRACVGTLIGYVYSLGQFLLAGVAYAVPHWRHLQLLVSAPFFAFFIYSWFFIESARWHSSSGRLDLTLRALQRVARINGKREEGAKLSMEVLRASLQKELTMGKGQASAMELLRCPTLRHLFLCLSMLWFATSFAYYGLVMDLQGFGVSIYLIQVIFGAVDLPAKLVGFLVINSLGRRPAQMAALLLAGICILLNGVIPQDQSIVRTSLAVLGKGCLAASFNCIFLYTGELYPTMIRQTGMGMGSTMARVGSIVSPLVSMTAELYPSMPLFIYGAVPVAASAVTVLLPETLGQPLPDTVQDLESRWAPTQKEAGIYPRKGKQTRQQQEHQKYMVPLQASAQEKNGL

[8] = test system: UGT; assay: Human hepatocyte UGT induction study, conversion of MPA to MPAG; assay type: cell-based; details: for formation of MPAG, % of NC (Mean): 96 h treatment
Experimental: Cryopreserved human hepatocytes were recovered in a pre-warmed incubation medium, diluted to a viable cell density (∼0.7 × 10^6 cells/mL) using a plating medium, followed by the addition of 100 μL hepatocytes into each well of a collagen I-coated 96-well plate. The cell monolayer was formed after an overnight incubation period at 37°C under 5%CO2. The plating medium was then replaced with an incubation medium for further culture. On the second day, an incubation medium containing different concentrations of either compound, the inducer omeprazole (final concentration of 50 μM), or vehicle (0.1% [v/v] dimethyl sulfoxide [DMSO]). […] At the end of the incubation period, the medium was replaced with a substrate for UGT and MPA. Following a further incubation of 15 or 30 min at 37°C under 5% CO2, 100 μL of the reaction medium was transferred to 400 μL of ice-cold methanol containing internal standard (IS) to terminate the reaction. Finally, the supernatant was collected after centrifugation at 4,000 rpm for 10 min and analyzed for glucuronide formation using liquid chromatography-mass spectrometry (LC-MS).
The formation of glucuronide metabolites, as determined with LC-MS, was used to calculate the formation rate linked to enzyme activity according to Equation 1. Formation rate pmol/10^6 cells/min=amount of glucuronide metabolites formation pmol/number of cells 10^6 cells×incubation time min (1)
The percentage of enzyme activity relative to the NC (%) was determined using Equation 2. Relative enzyme activity % of NC=formation rate in the compound−treated group/that in NC×100 (2)

[9] = criterion UR ≥2.0 and inhibition ≥50%

Chain of MRP2 (Q92887 whole entry): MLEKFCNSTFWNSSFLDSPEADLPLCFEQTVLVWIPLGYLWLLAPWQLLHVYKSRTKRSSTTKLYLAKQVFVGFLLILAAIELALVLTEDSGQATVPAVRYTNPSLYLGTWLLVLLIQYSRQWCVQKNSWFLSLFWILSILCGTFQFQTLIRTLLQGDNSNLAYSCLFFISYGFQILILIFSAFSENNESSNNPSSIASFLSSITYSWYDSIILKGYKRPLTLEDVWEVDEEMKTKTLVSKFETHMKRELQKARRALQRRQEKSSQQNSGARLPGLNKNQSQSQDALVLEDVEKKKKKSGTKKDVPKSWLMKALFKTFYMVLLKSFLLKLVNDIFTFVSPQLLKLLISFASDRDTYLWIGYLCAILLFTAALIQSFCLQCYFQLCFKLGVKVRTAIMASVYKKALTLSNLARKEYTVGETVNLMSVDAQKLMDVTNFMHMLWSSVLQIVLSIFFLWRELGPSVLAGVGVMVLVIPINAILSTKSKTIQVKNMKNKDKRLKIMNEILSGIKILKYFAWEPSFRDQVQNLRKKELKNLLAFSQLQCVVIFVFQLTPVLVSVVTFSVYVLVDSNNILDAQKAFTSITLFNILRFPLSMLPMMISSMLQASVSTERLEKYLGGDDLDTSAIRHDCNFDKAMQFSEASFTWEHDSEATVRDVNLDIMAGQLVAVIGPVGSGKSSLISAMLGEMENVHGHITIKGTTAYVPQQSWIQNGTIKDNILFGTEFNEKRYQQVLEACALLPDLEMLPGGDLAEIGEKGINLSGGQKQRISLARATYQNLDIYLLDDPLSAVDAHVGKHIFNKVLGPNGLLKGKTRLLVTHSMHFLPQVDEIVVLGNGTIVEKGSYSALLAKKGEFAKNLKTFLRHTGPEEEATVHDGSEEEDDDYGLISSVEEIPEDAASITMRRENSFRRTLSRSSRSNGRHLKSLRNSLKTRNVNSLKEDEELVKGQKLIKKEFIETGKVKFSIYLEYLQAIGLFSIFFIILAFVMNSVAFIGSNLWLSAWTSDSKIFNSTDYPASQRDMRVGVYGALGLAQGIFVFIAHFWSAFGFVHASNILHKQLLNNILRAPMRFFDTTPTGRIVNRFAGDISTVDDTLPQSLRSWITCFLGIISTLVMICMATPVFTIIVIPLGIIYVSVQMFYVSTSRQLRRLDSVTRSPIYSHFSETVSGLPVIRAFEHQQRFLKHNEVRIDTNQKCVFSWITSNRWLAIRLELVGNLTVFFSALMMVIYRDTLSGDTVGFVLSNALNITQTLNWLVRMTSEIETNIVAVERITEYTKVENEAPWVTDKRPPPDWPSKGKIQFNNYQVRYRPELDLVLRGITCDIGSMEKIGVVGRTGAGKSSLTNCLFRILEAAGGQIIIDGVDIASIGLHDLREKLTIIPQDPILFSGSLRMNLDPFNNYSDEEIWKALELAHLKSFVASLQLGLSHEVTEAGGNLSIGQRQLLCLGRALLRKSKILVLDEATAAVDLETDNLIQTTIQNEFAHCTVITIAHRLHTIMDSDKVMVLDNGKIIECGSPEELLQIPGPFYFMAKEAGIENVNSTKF

SMILES	Relative net uptake rate (% of NC), Mean, OATP1B1-mediated E217βG uptake [1]	Relative net uptake rate (% of NC), Mean, OATP1B3-mediated E217βG uptake [2]	Relative net uptake rate (% of NC), Mean, OAT3-mediated ES uptake [3]	Relative net uptake rate (% of NC), Mean, MRP2-mediated E217βG uptake [4]	also measured
CCCCC[C@H](O)/C=C/[C@H]1[C@H](O)CC(=O)[C@@H]1CCCCCCC(=O)O [Alprostadil, alprostadil]	33.6 % of NC	59.6 % of NC	52.6 % of NC	137 % of NC	–
CCN1CCN(C(=O)N[C@@H](C(=O)N[C@@H]2C(=O)N3C(C(=O)O)=C(CSc4nnnn4C)CS[C@H]23)c2ccc(O)cc2)C(=O)C1=O [Cefoperzone, cefoperazone]	168 % of NC	67.5 % of NC	–	104 % of NC	–
C[C@]12CC[C@@H]3c4ccc(OS(=O)(=O)O)cc4CC[C@H]3[C@@H]1CCC2=O [ES, estrone-3-sulfate]	–	–	–	–	uptake ratio (UR) of probe substrate mediated by OAT3 ([5]; after probenecid treatment): 3.26; uptake ratio (UR) of probe substrate mediated by OAT3 ([5]; without inhibitor): 7.37
COc1c(C)c2c(c(O)c1C/C=C(\C)CCC(=O)OCCN1CCOCC1)C(=O)OC2 [MMF, mycophenolate mofetil]	–	–	–	–	fraction of the absorbed drug eliminated in the urine ([6]; ref van Schaik et al., 2009): approximately 87%
COc1c(C)c2c(c(O)c1C/C=C(\C)CCC(=O)O)C(=O)OC2 [MPA, mycophenolic acid]	–	–	–	–	exposure lower in the early phase after transplantation than in the stable period ([6]; similar dose of MMF, ref Shaw et al., 2003): 30%–50%
COc1c(C)c2c(c(O[C@@H]3O[C@H](C(=O)O)[C@@H](O)[C@H](O)[C@H]3O)c1C/C=C(\C)CCC(=O)O)C(=O)OC2 [MPAG, 7-O-mycophenolic acid glucuronide]	–	–	–	–	uptake ratio (UR) mediated by OAT1 ([7]; 0.5, 1, and 10 μM): less than 2.0; substrate of OAT1 (in words) [7, 9]: not a substrate of OAT1; uptake ratio (UR) mediated by OAT3 ([5]; following incubation with probenecid): 1.19; uptake ratio (UR) mediated by OAT3 ([5]; without inhibitor): 2.47; substrate of OAT3 (in words) [5, 9]: weak substrate for OAT3
C[C@@H](O)[C@H]1C(=O)N2C(C(=O)O)=C(S[C@@H]3CN[C@H](C(=O)N(C)C)C3)[C@H](C)[C@H]12 [Meropenem, meropenem]	95.9 % of NC	69.9 % of NC	26.6 % of NC	137 % of NC	–
O=C(c1cc(Cc2n[nH]c(=O)c3ccccc23)ccc1F)N1CCN(C(=O)C2CC2)CC1 [Olaparib, olaparib]	99.3 % of NC	72.4 % of NC	70.2 % of NC	136 % of NC	–
COc1ccnc(C[S+]([O-])c2nc3ccc(OC(F)F)cc3[nH]2)c1OC (stereo not shown) [Pantoprazole, pantoprazole]	115 % of NC	67.7 % of NC	87.2 % of NC	134 % of NC	–
C[C@]12C=CC(=O)C=C1CC[C@@H]1[C@@H]2[C@@H](O)C[C@@]2(C)[C@H]1CC[C@]2(O)C(=O)CO [prednisolone]	–	–	–	–	formation of MPAG, % of NC (Mean) ([8]; 0.5 μM): 101 % of NC; formation of MPAG, % of NC (Mean) ([8]; 1 μM): 114 % of NC; formation of MPAG, % of NC (Mean) ([8]; 5 μM): 106 % of NC; formation of MPAG, % of NC (Mean) ([8]; 10 μM): 101 % of NC; formation of MPAG, % of NC (Mean) ([8]; 50 μM): 126 % of NC; formation of MPAG, % of NC (Mean) ([8]; 100 μM): 129 % of NC; change in MPAG formation from MPA (in words) ([8]; 96 h incubation of human hepatocytes): slight increase
CCCN(CCC)S(=O)(=O)c1ccc(C(=O)O)cc1 [probenecid]	–	–	–	–	reduction of OAT3-mediated MPAG uptake ([5]; 10 μM MPAG): 90.8%; reduction of OAT3-mediated ES uptake ([5]; probe substrate ES): 69.4%
